The values that follow come from patent US20040186129A1, “2-Aroylimidazole compounds for treating cancer” (priority 2001, published 2004).

Where two headings read alike, the source gives them in different places.

One series deals with MES-SA/DX5. Description: In vitro anti-cancer activity against multi-drug resistant cancer cells, MTS assay. It counts as cell-based. Conditions: Homo sapiens. How it is done: (§1) The cell lines were maintained in RPMI1640(GIBCO) supplemented with 10% FCS, 100 units/ml penicillin, 100 ug/ml streptomycin, and 2 mM L-glutamine. The cells were split every third day and diluted to a concentration of 2×10^5 cells/ml one day before experiment. All experiments were performed on exponentially growing cell culture. Cell densities were 2.5×10^4 cells/ml in all experiment.
(§2) A stock solution of Compound (1) was prepared by dissolving the compound at a concentration of 1 mM in 100% DMSO. Final concentrations were obtained by diluting the stock solution directly into the tissue culture medium. Cells were incubated with varying concentrations of the compounds for 72 hours and the IC50 was determined by MTS (i.e. […]) assay. IC50 stands for the concentration of compound required to inhibit 50% tumor cell growth.
(§3) In vitro activity was determined in two MDR (Multi Drug Resistant) human cancer cell lines. HL-60/TX1000 was isolated in vitro by subculturing HL-60 in progressively higher concentration of Taxol. HL-60/TX1000 cells over-express mdr-1 mRNA and p-glycoprotein, as determined by western blot and immunofluorescence labeling with antiPGP antibodies. The cell is cross-resistant to Taxol, Vincristine, Adriamycin, Etoposide and Doxorubicin. MES-SA/Dx5 was established in the presence of increasing concentrations of Doxorubicin. […] MES-SA/Dx5 was purchased from ATCC.
(§4) The procedure for culturing the cells and assaying cancer cell growth inhibition were as described in Example 12.
(§5) The protocol described in Examples 12-13 was used to assay inhibition by Compound (2)-(12) on the growth of the multidrug resistant cancer cell line MES-SA/DX5 and HL-60/TX1000.
A general note: Tetrazolium dyes change colour on reduction, which living cells bring about.

A further series concerns HL-60/TX1000. The series is described as above. Format: cell-based. Conditions: Homo sapiens, HL60/TX1000. The protocol: as §1, §2, §3, §4, §5
Series [1] in a line: Body weight of treated tumor bearing mice (signs of toxicity). Format: in vivo, mouse. How it is done:
(§6) The in vivo anti-cancer efficacy of Compound (2) was assessed in tumor bearing mice using a tumor growth inhibition assay. Human breast tumor (MDA-435) cells were implanted by injection of a tumor cell suspension subcutaneously in the flank of a nude mouse. Treatment of the tumor with an experimental compound began after the tumor had been established (volume was approximately 100 mm^3). The animal then began a multiple injection schedule where the compound was administered orally. Tumors were measured two times a week. During the course of this assay, animals were monitored daily for signs of toxicity including body weight loss.
A dosing solution for compound administration was prepared by dissolving 1 gram of Compound (2) in 10 ml of acetone (HPLC grade), and sonicated for 5 minutes using 550 Sonic Dismembrator. 1.2 equivalents of 1 N HCl aqueous solution were added to the acetone solution which was then sonicated for 5 minutes. All solvent was then evaporated from the solution by using Speed Vac Plus SC 250 DDA over night. The dried powder was used for preparing the dosing solution of Compound (2). 1% Methyl cellulose (MC) vehicle was prepared by dissolving 1.0 gram of Methyl cellulose, 400 cps, U.S.P. (Spectrum Laboratory Products, Cat. # ME136) in 100 mL of H2O. This mixture was then stirred for 12 hours at room temperature to produce a clear 1% MC solution. […]

The subject of series [2] is human breast tumor (MDA435). In words: Tumor growth inhibition assay, human breast tumor (MDA435) xenograft model. Format: in vivo, mouse. How it is done:
as §6
A supplemented media was prepared from 50% DMEM/Dulbecco Modified Eagle Medium (High Glucose), 50% RPMI 1640, 10% FBS/Fetal Bovine Serum (Hybridoma Tested; Sterile Filtered), 1% L-Glutamine, 1% Penicillin-Streptomycin, 1% MEM Sodium Pyruvate, 1% MEM Non-Essential Amino Acids. […]
The flask was washed with 10 ml of sterile room temperature phosphate buffered saline (PBS). […] The supernatant was aspirated and the cell pellet was resuspended in 10 ml of supplemented media and the cells were counted. […]
The above procedure for trypsinizing and centrifuging the cells were followed. The supernatant was aspirated and the cell pellet was resuspended in 10 ml of sterile PBS and the cells were counted. […]
A general note: Xenograft models place foreign cells or tissue in a host animal.

Series [3] has as its system MDR cell lines (MES-SA/DX5, HL-60/TX1000). Description: In vitro anti-cancer activity, summary over both MDR cell lines. It counts as cell-based, human. Conditions: Homo sapiens, MES-SA/DX5 and HL-60/TX1000, text summary of Tables 2 and 3; read-out: IC50 against the MDR cell lines. How it is done:
as §1, §2
In vitro activity was determined in two MDR (Multi Drug Resistant) human cancer cell lines. HL-60/TX1000 was isolated in vitro by subculturing HL-60 in progressively higher concentration of Taxol. HL-60/TX1000 cells over-express mdr-1 mRNA and p-glycoprotein, as determined by western blot and immunofluorescence labeling with antiPGP antibodies. The cell is cross-resistant to Taxol, Vincristine, Adriamycin, Etoposide and Doxorubicin. […]

The mark [4] stands for this setting: MES-SA/DX5, Table 3, read-out: IC50 (uM) MES-SA/DX5.
Where [5] appears, read: HL-60/TX1000, Table 3, read-out: IC50 (uM) HL-60/TX1000.
[6] abbreviates: MES-SA/Dx5, MES-SA/DX-5, Table 2, read-out: IC50.
[7] abbreviates: HL-60/TX1000, Table 2, read-out: IC50.

In the case of `N#Cc1ccc(Cn2cc(C(=O)c3nc4cnccc4[nH]3)c3ccccc32)cc1` [Compound 2], the IC50 in the series on MES-SA/DX5 (setting [4]) and with HL-60/TX1000 (setting [5]) was 0.05 µM each time. Moreover, the “change in body weight” value in series [1] (mice treated with Compound (2)) is “Little or no change in body weight”. Besides, the loss of weight entry in series [1] (nude mice, 25 mg/kg orally, 3 times a week for 3 weeks) is given as “less than 5%”. Moreover, the tumor growth inhibition entry in series [2] (MDA435 in nude mice, 25 mg/kg orally, 3 times a week for 3 weeks) is listed as “significantly inhibits tumor growth”. For the same compound, in series [2] (MDA435 tumors in nude mice, administered orally), the “reduction of the volume of tumors” value is on record as “greater than 50%”.
On to `O=C(c1nc2cnccc2[nH]1)c1cn(Cc2ccc(Cl)c(Cl)c2)c2ccccc12` [Compound 3], for which the IC50 in the series with MES-SA/DX5 (setting [4]) is 0.05 µM; in the series with HL-60/TX1000 (setting [5]), 0.04 µM.
On the same counts, the results for `Cc1ccc(Cn2cc(C(=O)c3nc4cnccc4[nH]3)c3ccccc32)cc1` [Compound 4] are 0.05 µM and 0.05 µM.
As for `Cc1cccc2c(C(=O)c3nc4ccncc4[nH]3)cn(Cc3ccc(Cl)cc3)c12` [Compound 5], the figures for the IC50 in the series on MES-SA/DX5 (setting [4]) and in the series with HL-60/TX1000 (setting [5]) were 0.5 µM and 0.1 µM, respectively.
As to `O=C(c1nc2ccncc2[nH]1)c1cn(Cc2ccc(Cl)cc2)c2cc(F)ccc12` [Compound 6], the IC50 with MES-SA/DX5 (setting [4]) and in the series on HL-60/TX1000 (setting [5]) was 0.05 µM throughout.
On to `O=C(c1nc2ccncc2[nH]1)c1cc(Cc2ccc(Cl)cc2)n2ccccc12` [Compound 7], for which the IC50 amounted to 0.5 µM with MES-SA/DX5 (setting [4]) and 0.05 µM with HL-60/TX1000 (setting [5]).
In the case of `COC(=O)c1cnc(C(=O)c2cn(Cc3ccc(Cl)cc3)c3ccccc23)[nH]1` [Compound 8, 2-[1-(4-chloro-benzyl)-1H-indole-3-carbonyl]-3H-imidazole-4-carboxylic acid methyl ester], the IC50 in the series with MES-SA/DX5 (setting [4]) is 0.1 µM; in the series on HL-60/TX1000 (setting [5]) it was 0.05 µM.
On the same counts, the results for `O=C(c1nc(-c2ccccn2)c[nH]1)c1cn(Cc2ccc(Cl)cc2)c2ccccc12` [Compound 9, [1-(4-Chloro-benzyl)-1H-indol-3-yl]-(4-pyridin-2-yl-1H-imidazol-2-yl)-methanone] are 0.5 µM and 0.5 µM.
On the same counts, the results for `O=C(c1cccnc1)c1c[nH]c(C(=O)c2cn(Cc3ccc(Cl)cc3)c3ccccc23)n1` [Compound 10, [1-(4-Chlorobenzyl)-1H-indol-3-yl]-[4-(pyridine-3-carbonyl)-1H-imidazol-2-yl]methanone] are 0.5 µM and 0.5 µM.
With `CCC(=O)c1c[nH]c(C(=O)c2cn(Cc3ccc(Cl)cc3)c3ccccc23)n1` [Compound 11], the IC50 in the series with MES-SA/DX5 (setting [4]) and in the series on HL-60/TX1000 (setting [5]) was 0.5 µM in each case.
With `CC1(C)COC(c2cnc(C(=O)c3cn(Cc4ccc(Cl)cc4)c4ccccc34)[nH]2)=N1` [Compound 12, [1-(4-chlorobenzyl)-1H-indol-3-yl]-[5-(4,4-dimethyl-4,5-dihydro-oxazol-2-yl)-1H-imidazo 1-2-yl]-methanone], the IC50 in the series with MES-SA/DX5 (setting [4]) and in the series with HL-60/TX1000 (setting [5]) was 0.5 µM throughout.
On to `CC(=O)O[C@H]1C(=O)[C@@]2(C)[C@H]([C@H](OC(=O)c3ccccc3)[C@]3(O)C[C@H](OC(=O)[C@H](O)[C@@H](NC(=O)c4ccccc4)c4ccccc4)C(C)=C1C3(C)C)[C@]1(OC(C)=O)CO[C@@H]1C[C@@H]2O` [Taxol, reference compound], for which the IC50 in the series with MES-SA/DX5 (setting [6]) and in the series with HL-60/TX1000 (setting [7]) was 5 µM in each case.
Turning to `CC[C@]1(O)C[C@H]2CN(CCc3c([nH]c4ccccc34)[C@@](C(=O)OC)(c3cc4c(cc3OC)N(C=O)[C@H]3[C@@](O)(C(=O)OC)[C@H](OC(C)=O)[C@]5(CC)C=CCN6CC[C@]43[C@@H]65)C2)C1` [Vincristine, reference compound], the IC50 in the series on MES-SA/DX5 (setting [6]) is 1 µM; in the series with HL-60/TX1000 (setting [7]) it was 5 µM; in series [3], 1000 to 5000 nM.
